This note sets out measurements from patent US10774087B2, “Sulfonamide derivative having coumarin skeleton” (Daiichi Sankyo Company, Limited, priority 2016, dated 2020).

One test has as its system MDA-MB-231 luc cells. Kind of test: Growth inhibition test using MDA-MB-231 luc cells. It counts as cell-based, human.
In test [1] the target is T1, recombinant MTHFD2 protein (Homo sapiens, UniProt P13995).
T1 construct: containing recombinant MTHFD2 protein
T1 sequence (P13995 36-350): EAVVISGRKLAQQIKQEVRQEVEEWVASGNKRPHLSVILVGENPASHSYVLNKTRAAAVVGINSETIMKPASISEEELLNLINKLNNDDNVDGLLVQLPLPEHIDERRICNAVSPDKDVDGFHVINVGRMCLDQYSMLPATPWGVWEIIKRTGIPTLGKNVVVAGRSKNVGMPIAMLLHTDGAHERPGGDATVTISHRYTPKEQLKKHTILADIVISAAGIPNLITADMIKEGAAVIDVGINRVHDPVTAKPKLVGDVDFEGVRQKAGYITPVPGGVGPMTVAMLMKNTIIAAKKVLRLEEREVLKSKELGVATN
Nature of the test: MTHFD2 dehydrogenase assay. In kind it is biochemical.

Test [2] addresses T2, recombinant MTHFD1 protein (dehydrogenase domain, alone) (Homo sapiens, UniProt P11586).
T2 construct: recombinant MTHFD1 protein (dehydrogenase domain, alone)
T2 sequence (P11586 2-291 limits assumed): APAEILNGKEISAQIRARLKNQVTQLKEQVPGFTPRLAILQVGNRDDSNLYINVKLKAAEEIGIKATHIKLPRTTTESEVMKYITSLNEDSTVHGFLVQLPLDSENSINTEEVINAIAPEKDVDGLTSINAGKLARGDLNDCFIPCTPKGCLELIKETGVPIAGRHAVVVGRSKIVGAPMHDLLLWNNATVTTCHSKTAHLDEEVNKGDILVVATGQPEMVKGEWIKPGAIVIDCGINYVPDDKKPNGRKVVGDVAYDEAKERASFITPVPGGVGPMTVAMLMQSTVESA
Kind of test: MTHFD1 dehydrogenase assay. It counts as biochemical.

The mark [3] stands for this setting: 200 μM NAD, room temperature 30 minutes, absorbance 355 nm.
The mark [4] stands for this setting: 165.4 μM NADP, room temperature 30 minutes, absorbance 355 nm.
Where [5] appears, read: human breast cancer MDA-MB-231 luc, Day 3, cell-titer Glo, Day 0 value subtracted, read-out: GI50.

Each structure is given as a SMILES string. Structures can show the parent of a compound that is named as a salt. Where two headings read alike, the source gives them in different places.

Take `Cc1c(N2CCN(C)CC2)ccc2c3c(c(=O)oc12)CN(C(=O)c1ccc(NS(C)(=O)=O)c(Cl)c1)CC3` [Example 1, N-(2-chloro-4-{[7-methyl-8-(4-methylpiperazin-1-yl)-5-oxo-1,5-dihydro-2H-chromeno[3,4-c]pyridin-3(4H)-yl]carbonyl}phenyl)methanesulfonamide]: it took 940 nM to inhibit growth in the test on MDA-MB-231 luc cells (Homo sapiens, MDA-MB-231) by half (GI50). The IC50 in test [1] (setting [3]) turned out to be 48 nM.

In the test with MDA-MB-231 luc cells (Homo sapiens, MDA-MB-231), `Cc1c(N2C[C@@H](C)N(C)[C@@H](C)C2)ccc2c3c(c(=O)oc12)CN(C(=O)c1ccc(NS(C)(=O)=O)c(Cl)c1)CC3` [Example 14, N-[2-Chloro-4-({7-methyl-5-oxo-8-[(3R,5S)-3,4,5-trimethylpiperazin-1-yl]-1,5-dihydro-2H-chromeno[3,4-c]pyridin-3(4H)-yl}carbonyl)phenyl]methanesulfonamide] gave a GI50 of 780 nM. Further, in test [1] (setting [3]), the IC50 was 37 nM.

As to `Cc1c(N2CCN(C)[C@@H](C)C2)ccc2c3c(c(=O)oc12)CN(C(=O)c1ccc(NS(C)(=O)=O)c(C(F)(F)F)c1)CC3` [Example 6, N-[4-({8-[(3S)-3,4-Dimethylpiperazin-1-yl]-7-methyl-5-oxo-1,5-dihydro-2H-chromeno[3,4-c]pyridin-3(4H)-yl}carbonyl)-2-(trifluoromethyl)phenyl]methanesulfonamide], the results for the IC50 in test [2] and in test [1] were 1500 nM and 6.4 nM, respectively. For the same compound, the GI50 in the test on MDA-MB-231 luc cells (Homo sapiens, MDA-MB-231) is 210 nM.

With `Cc1c(N2CCN(C)CC2)ccc2c3c(c(=O)oc12)CN(C(=O)c1ccc(NS(=O)(=O)C2CC2)c(Cl)c1)CC3` [Example 2, N-(2-Chloro-4-{[7-methyl-8-(4-methylpiperazin-1-yl)-5-oxo-1,5-dihydro-2H-chromeno[3,4-c]pyridin-3(4H)-yl]carbonyl}phenyl)cyclopropanesulfonamide], the IC50 in test [2] (setting [4]) came out at 2200 nM; in test [1] (setting [3]), 28 nM. In addition, the GI50 in the test with MDA-MB-231 luc cells (setting [5]) is 1100 nM.

`Cc1c(N2CCN(C)[C@@H](C)C2)ccc2c3c(c(=O)oc12)CN(C(=O)c1ccc(NS(C)(=O)=O)c(Cl)c1)CC3` [Example 4, N-[2-Chloro-4-({8-[(3S)-3,4-dimethylpiperazin-1-yl]-7-methyl-5-oxo-1,5-dihydro-2H-chromeno[3,4-c]pyridin-3(4H)-yl}carbonyl)phenyl]methanesulfonamide] returned a GI50 in the test on MDA-MB-231 luc cells (Homo sapiens, MDA-MB-231) of 200 nM. Besides, the IC50 in test [1] (setting [3]) is 9.3 nM.

Compound `Cc1c(N2CCN(C)[C@@H](C)C2)ccc2c3c(c(=O)oc12)CN(C(=O)c1ccc(NS(C)(=O)=O)c(OC(F)(F)F)c1)CC3` [Example 5, N-[4-({8-[(3S)-3,4-Dimethylpiperazin-1-yl]-7-methyl-5-oxo-1,5-dihydro-2H-chromeno[3,4-c]pyridin-3(4H)-yl}carbonyl)-2-(trifluoromethoxy)phenyl]methanesulfonamide] came in with a GI50 in the test with MDA-MB-231 luc cells (Homo sapiens, MDA-MB-231) of 140 nM.

With `Cc1c(N2CCN(C)C(C)(C)C2)ccc2c3c(c(=O)oc12)CN(C(=O)c1ccc(NS(C)(=O)=O)c(OC(F)(F)F)c1)CC3` [Example 12, N-[4-{[7-Methyl-5-oxo-8-(3,3,4-trimethylpiperazin-1-yl)-1,5-dihydro-2H-chromeno[3,4-c]pyridin-3(4H)-yl]carbonyl}-2-(trifluoromethoxy)phenyl]methanesulfonamide], the half-inhibitory concentration (IC50) amounted to 710 nM in test [2] and 75 nM in test [1]. Further, the GI50 with MDA-MB-231 luc cells (Homo sapiens, MDA-MB-231) is 66 nM.

`Cc1c(N2CCN(C)CC2)ccc2c3c(c(=O)oc12)CN(C(=O)c1ccc(NS(C)(=O)=O)c(OC(F)(F)F)c1)CC3` [Example 3, N-[4-{[7-Methyl-8-(4-methylpiperazin-1-yl)-5-oxo-1,5-dihydro-2H-chromeno[3,4-c]pyridin-3(4H)-yl]carbonyl}-2-(trifluoromethoxy)phenyl]methanesulfonamide]: the GI50 with MDA-MB-231 luc cells (Homo sapiens, MDA-MB-231) was 380 nM. In addition, the IC50 in test [1] (setting [3]) was found to be 21 nM.

As for `Cc1c(N2CCN(C)[C@@H](C)C2)cc(C)c2c3c(c(=O)oc12)CN(C(=O)c1ccc(NS(C)(=O)=O)c(OC(F)(F)F)c1)CC3` [Example 8, N-[4-({8-[(3S)-3,4-Dimethylpiperazin-1-yl]-7,10-dimethyl-5-oxo-1,5-dihydro-2H-chromeno[3,4-c]pyridin-3(4H)-yl}carbonyl)-2-(trifluoromethoxy)phenyl]methanesulfonamide], the IC50 turned out to be 200 nM in test [2] and 2.6 nM in test [1]. Halving of growth in the test on MDA-MB-231 luc cells (Homo sapiens, MDA-MB-231) (GI50) required 45 nM.

With `Cc1c(N2CCN(C)[C@@H](C)C2)cc(C)c2c3c(c(=O)oc12)CN(C(=O)c1ccc(NS(C)(=O)=O)c(Cl)c1)CC3` [Example 7, N-[2-Chloro-4-({8-[(3S)-3,4-dimethylpiperazin-1-yl]-7,10-dimethyl-5-oxo-1,5-dihydro-2H-chromeno[3,4-c]pyridin-3(4H)-yl}carbonyl)phenyl]methanesulfonamide], the results for the concentration for half-maximal inhibition (IC50) in test [2] and in test [1] were 560 nM and 4.4 nM, respectively. Further, in the test on MDA-MB-231 luc cells (Homo sapiens, MDA-MB-231), the GI50 is 100 nM.

`CC[C@H]1CN(c2ccc3c4c(c(=O)oc3c2C)CN(C(=O)c2ccc(NS(C)(=O)=O)c(OC(F)(F)F)c2)CC4)CCN1C` [Example 11, N-[4-({8-[(3S)-3-Ethyl-4-methylpiperazin-1-yl]-7-methyl-5-oxo-1,5-dihydro-2H-chromeno[3,4-c]pyridin-3(4H)-yl}carbonyl)-2-(trifluoromethoxy)phenyl]methanesulfonamide]: the IC50 in test [2] was determined as 360 nM; in test [1], 5.1 nM. Besides, in the test with MDA-MB-231 luc cells (Homo sapiens, MDA-MB-231), the GI50 amounted to 120 nM.

As to `CCS(=O)(=O)Nc1ccc(C(=O)N2CCc3c(c(=O)oc4c(C)c(N5CCN(C)[C@@H](C)C5)cc(C)c34)C2)cc1OC(F)(F)F` [Example 10, N-[4-({8-[(3S)-3,4-Dimethylpiperazin-1-yl]-7,10-dimethyl-5-oxo-1,5-dihydro-2H-chromeno[3,4-c]pyridin-3(4H)-yl}carbonyl)-2-(trifluoromethoxy)phenyl]ethanesulfonamide], the IC50 is 220 nM in test [2] (setting [4]) and 2.7 nM in test [1] (setting [3]). In addition, the GI50 in the test on MDA-MB-231 luc cells (setting [5]) came to 17 nM.

As to `Cc1c(N2CCN[C@@H](C)C2)ccc2c3c(c(=O)oc12)CN(C(=O)c1ccc(NS(C)(=O)=O)c(OC(F)(F)F)c1)CC3` [Example 13, N-[4-({7-Methyl-8-[(3S)-3-methylpiperazin-1-yl]-5-oxo-1,5-dihydro-2H-chromeno[3,4-c]pyridin-3(4H)-yl}carbonyl)-2-(trifluoromethoxy)phenyl]methanesulfonamide hydrochloride], the IC50 in test [2] (setting [4]) worked out at 900 nM; in test [1] (setting [3]) it was 7.8 nM. In addition, in the test on MDA-MB-231 luc cells (Homo sapiens, MDA-MB-231), the GI50 was 260 nM.

Take `CCS(=O)(=O)Nc1ccc(C(=O)N2CCc3c(c(=O)oc4c(C)c(N5CCN(C)[C@@H](C)C5)ccc34)C2)cc1OC(F)(F)F` [Example 9, N-[4-({8-[(3S)-3,4-Dimethylpiperazin-1-yl]-7-methyl-5-oxo-1,5-dihydro-2H-chromeno[3,4-c]pyridin-3(4H)-yl}carbonyl)-2-(trifluoromethoxy)phenyl]ethanesulfonamide]: the IC50 in test [2] came out at 400 nM; in test [1], 4.7 nM. The compound further showed a GI50 with MDA-MB-231 luc cells (Homo sapiens, MDA-MB-231) of 120 nM.

A word on the GI50: it is the concentration at which growth is held to half of that of the control. In general, IC50 refers to the concentration at which inhibition is half-maximal.
